Reference: publication PMC7593722, “UPLC-MS/MS Method for the Simultaneous Quantification of Eight Compounds in Rat Plasma and Its Application to a Pharmacokinetic Study after Oral Administration of Veratrum (Veratrum nigrum L.) Extract” (BioMed Research International, 2020)

Test: in vivo
Conditions: for Tmax: T max; for Detection in rat plasma after dosing: no complete pharmacokinetic curve
Procedure: 0.1% formic acid in water (A) and acetonitrile (B) were used as mobile phases with the following gradient elution method: 0-2 min, 15%-25% B; 2-4 min, 25%-50% B; 4-6 min, 50%-90% B; and 6-7 min, 90%-95% B. The separation was performed on a Waters ACQUITY UPLC® CSHTM Phenyl-Hexyl (2.1 × 100 mm, 1.7 μm) column, and the temperature was maintained at 20°C. The flow rate and injection volume were 0.3 mL/min and 5 μL, respectively.
100 μL plasma sample was incorporated with 20 μL methanol and 20 μL of IS (20 ng/mL), and vortexed for 30 seconds. 1 mL ethyl acetate was then added to the sample and vortex-mixed for 3 min. […] The obtained residue was reconstituted in 100 μL methanol and centrifugation at 12000 × g for 10 min. 5 μL of the supernatant was injected for UPLC-MS/MS measurement.
Six male Sprague-Dawley rats (body weight, 220 ± 10 g) were used for this experiment. […] 0.5% CMC-Na aqueous solution was used to dissolve the Veratrum nigrum L. extract to a concentration of 0.2 g/mL suspension. […] After centrifugation at 4000 × g for 10 min at 4°C, the collected plasma was transferred into clean tubes and frozen at -80°C until next analysis. Pharmacokinetic parameters were calculated using “Drug and Statistics 3.0” (DAS 3.0) (Medical College of Wannan, China). The animal protocol was approved by the Animal Ethics Committee of Tianjin University of Traditional Chinese Medicine (TCM-LAEC20190060).
Some important pharmacokinetic parameters were calculated in this study including Cmax, the maximum plasma concentration and time to reach Cmax of each compound (Tmax). The T1/2 was the elimination half-life and it reflects the elimination rate of the drug in the body. The area under the plasma concentration-time curve AUC(0 − t) was calculated using the trapezoidal rule and extrapolated to infinity for AUC(0 − ∞). The mean residence time (MRT) of these ingredients was also investigated.

[1] = male, Sprague-Dawley, rat, in vivo, po, 2 g/kg
[2] = male, Sprague-Dawley, rat, in vivo, po, 2 g/kg, male Sprague-Dawley rats, oral Veratrum nigrum L. extract 2 g/kg, plasma, n = 6, mean ± SD
[3] = oral Veratrum nigrum L. extract 2 g/kg

Row | Compound | AUC(0-inf) [1] [ng·h/mL] | AUC(0-t) [1] [ng·h/mL] | Cmax [1] [ng/mL] | MRT [1] [h] | MRT inf [1] [h] | half-life [1] [h] | Tmax [2] [h] | Detection in rat plasma after dosing [3] | T max (male Sprague-Dawley rats, oral Veratrum nigrum L. extract 2 g/kg, plasma, n = 6, mean ± SD) [h] | T max [1] [h] | Tmax [1] [h]
1 | Cc1c([C@H](C)[C@@H]2NC[C@@H](C)C[C@H]2O)ccc2c1C[C@H]1[C@H]2CC=C2C[C@@H](O[C@@H]3O[C@H](CO)[C@@H](O)[C@H](O)[C@H]3O)CC[C@@]21C [Veratrosine, veratrosine] | 421 ± 199 | 410 ± 183 | 237 ± 155 | 10.5 ± 6.9 | 11.3 ± 7.68 | 11.5 ± 7.04 | 0.08 | – | – | – | –
2 | CC1=C2C[C@H]3[C@@H](CC=C4C[C@@H](O)CC[C@@]43C)[C@@H]2CC[C@]12O[C@@H]1C[C@H](C)CN[C@H]1[C@H]2C [Cyclopamine, cyclopamine] | – | – | – | – | – | – | – | only detected at the first few plasma sampling points | – | – | –
3 | O=c1cc(-c2ccc(O)cc2)oc2cc(O)cc(O)c12 [Apigenin, apigenin] | – | – | – | – | – | – | – | only detected at the first few plasma sampling points | – | – | –
4 | Oc1ccc(/C=C/c2cc(O)cc(O)c2)cc1 [Resveratrol, resveratrol] | 101 ± 51.5 | 89.7 ± 49.3 | 45 ± 39.5 | 13.2 ± 7.77 | 19 ± 15.5 | 2.24 ± 1.11 | 0.18 ± 0.17 | – | – | – | –
5 | O=c1c(O)c(-c2ccc(O)c(O)c2)oc2cc(O)cc(O)c12 [Quercetin, quercetin] | – | – | – | – | – | – | – | only detected at the first few plasma sampling points | – | – | –
6 | CC1=C2C(=O)[C@H]3[C@@H](CC=C4C[C@@H](O)CC[C@@]43C)[C@@H]2CC[C@]12O[C@@H]1C[C@H](C)CN[C@H]1[C@H]2C [Jervine, jervine] | 22700 ± 9430 | 22600 ± 9390 | 515 ± 242 | 38.8 ± 5.58 | 39.1 ± 5.53 | 13.6 ± 1.36 | > 32 | – | 32.00 ± 6.20 | – | –
7 | OC[C@H]1O[C@@H](Oc2cc(O)cc(/C=C/c3ccc(O)cc3)c2)[C@H](O)[C@@H](O)[C@@H]1O [Polydatin, polydatin] | 71.2 ± 13.9 | 60.4 ± 18.1 | 27.1 ± 24 | 13.2 ± 2.98 | 16.5 ± 13.7 | 14.4 ± 10.6 | 0.26 ± 0.29 | – | – | – | –
8 | Cc1c([C@H](C)[C@@H]2NC[C@@H](C)C[C@H]2O)ccc2c1C[C@H]1[C@H]2CC=C2C[C@@H](O)CC[C@@]21C [Veratramine, veratramine] | 8000 ± 2330 | 7980 ± 2330 | 193 ± 76.5 | 38.8 ± 5.83 | 39 ± 5.91 | 14.2 ± 6.51 | – | – | – | 34.08 ± 23.14 | > 32
